Experimental data taken from patent publication US9234000B2, “Benzylamine derivatives as inhibitors of plasma kallikrein” (KalVista Pharmaceuticals Limited, priority 2011, dated 2016).
pIC50: −log10 of the molar value. ≈ marks a conversion by molar mass, not a printed value.

Assays:
[1] = physchem; conditions: for solubility in PO4 buffer: pH 7
Method: Determination of the Kinetic Solubility in Phosphate Buffer
After shaking for approximately 30 seconds the reduction in light transmission of these samples, at 650 nm, was measured (Molecular Devices Spectromax UV/visible spectrophotometer). A second measurement was taken at approximately 30 seconds later.

[2] = biological target: Human plasma kallikrein (Homo sapiens (Human), UniProt P03952); test: Determination of the IC50 for plasma kallikrein; format: biochemical; conditions: fluorogenic substrate H-DPro-Phe-Arg-AFC, 37° C., read-out: IC50 (human PKal)
Outline: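 Residual activity (initial rate, absorbance at 410 nm) gave the IC50. Reactions at 37° C combined human plasma kallikrein, substrate H-DPro-Phe-Arg-AFC and a range of inhibitor concentrations.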

[3] = biological target: Human KLK1 (Homo sapiens (Human), UniProt P06870); test: Determination of the IC50 for KLK1; format: biochemical; conditions: Human KLK1, 37° C., substrate H-DVal-Leu-Arg-AFC; Table 12
Outline: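 IC50 values reflect residual human KLK1 activity, read as initial rate from optical absorbance change at 410 nm. Incubations ran at 37° C with H-DVal-Leu-Arg-AFC as substrate across a compound concentration series.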

Human plasma kallikrein, sequence (P03952 391-638): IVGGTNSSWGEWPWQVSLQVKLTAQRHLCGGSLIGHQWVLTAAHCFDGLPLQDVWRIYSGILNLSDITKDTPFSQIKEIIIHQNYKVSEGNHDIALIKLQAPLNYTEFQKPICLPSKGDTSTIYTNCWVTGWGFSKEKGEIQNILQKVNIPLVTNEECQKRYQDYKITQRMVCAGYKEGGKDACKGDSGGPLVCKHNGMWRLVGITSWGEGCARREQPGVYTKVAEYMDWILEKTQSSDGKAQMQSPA
Human plasma kallikrein, sequence (P03952 20-390 partner): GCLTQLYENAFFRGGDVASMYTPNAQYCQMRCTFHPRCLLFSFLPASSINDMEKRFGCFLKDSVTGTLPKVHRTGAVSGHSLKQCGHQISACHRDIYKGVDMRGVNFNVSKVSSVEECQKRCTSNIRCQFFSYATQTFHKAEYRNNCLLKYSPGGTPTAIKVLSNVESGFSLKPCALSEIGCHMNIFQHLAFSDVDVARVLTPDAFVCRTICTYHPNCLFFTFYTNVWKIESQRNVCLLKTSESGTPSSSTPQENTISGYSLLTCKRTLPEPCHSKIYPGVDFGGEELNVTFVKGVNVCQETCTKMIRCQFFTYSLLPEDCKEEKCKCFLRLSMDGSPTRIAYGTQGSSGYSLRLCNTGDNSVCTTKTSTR
Human KLK1, sequence (P06870 25-262): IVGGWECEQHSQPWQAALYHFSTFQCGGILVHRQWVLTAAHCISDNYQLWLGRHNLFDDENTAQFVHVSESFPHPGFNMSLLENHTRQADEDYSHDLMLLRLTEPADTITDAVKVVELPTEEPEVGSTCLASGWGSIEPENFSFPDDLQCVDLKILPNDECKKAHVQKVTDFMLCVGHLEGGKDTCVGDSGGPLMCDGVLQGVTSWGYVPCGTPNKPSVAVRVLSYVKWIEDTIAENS

With CN[C@H](CC1CCCCC1)C(=O)N[C@@H](Cc1ccccc1)C(=O)NCc1ccc(CN)cc1 [Example 33, (R)-N-[(S)-1-(4-Aminomethyl-benzylcarbamoyl)-2-phenyl-ethyl]-3-cyclohexyl-2-methylamino-propionamide] as the compound, how does the solubility in PO4 buffer [1] read?
Its solubility in PO4 buffer is > 235 µM.

What about the pIC50 [2] of the same compound?
Its pIC50 is 5.96.

And the pIC50 [3]?
Its pIC50 is < 5.00.

With CCCN[C@H](CC1CCCCC1)C(=O)N[C@@H](Cc1ccccc1)C(=O)NCc1ccc(CN)cc1 [Example 37, (R)-N-[(S)-1-(4-Aminomethyl-benzylcarbamoyl)-2-phenyl-ethyl]-3-cyclohexyl-2-propylamino-propionamide] as the compound, how does the solubility in PO4 buffer [1] read?
Its solubility in PO4 buffer is > 235 µM.

What about the pIC50 [2] of the same compound?
Its pIC50 is 6.04.

What about the pIC50 [3] of the same compound?
The pIC50 was < 5.00.

With CCC(=O)N[C@H](CC1CCCCC1)C(=O)N[C@@H](Cc1ccc(Cl)c(Cl)c1)C(=O)NCc1ccc(CN)cc1 [Example 21, (R)-N-[(S)-1-(4-Aminomethyl-benzylcarbamoyl)-2-(3,4-dichloro-phenyl)-ethyl]-3-cyclohexyl-2-propionylamino-propionamide] as the compound, how does the solubility ([1]; pH 7, aqueous buffer, kinetic from dmso stock) read?
The solubility was 12 µM (≈ 6.74 µg/mL).

And the pIC50 [2]?
The pIC50 was 5.29.

And the pIC50 [3]?
Its pIC50 is 5.00.

Which results are given for CCCN(C)[C@H](CC1CCCCC1)C(=O)N[C@@H](Cc1ccccc1)C(=O)NCc1ccc(CN)cc1 [Example 45, (R)-N-[(S)-1-(4-Aminomethyl-benzylcarbamoyl)-2-phenyl-ethyl]-3-cyclohexyl-2-(methyl-propyl-amino)-propionamide]?
solubility in PO4 buffer [1]: > 235 µM; pIC50 [2]: 6.10; pIC50 [3]: < 5.00

Which solubility in PO4 buffer [1] does the source give for CN(Cc1ccc(CN)cc1)C(=O)[C@H](Cc1ccccc1)NC(=O)[C@@H](CC1CCCCC1)NCC(=O)O [Example 36, ((R)-1-{(S)-1-[(4-Aminomethyl-benzyl)-methyl-carbamoyl]-2-phenyl-ethylcarbamoyl}-2-cyclohexyl-ethylamino)-acetic acid] here?
The solubility in PO4 buffer was > 235 µM.

And the pIC50 [2]?
The pIC50 was 5.09.

And the pIC50 [3]?
Its pIC50 is < 5.00.

What does the source list for CCOc1ccc(C[C@@H](NCC(=O)O)C(=O)N[C@@H](Cc2ccccc2)C(=O)NCc2ccc(CN)cc2)cc1 [Example 17, [(R)-1-[(S)-1-(4-Aminomethyl-benzylcarbamoyl)-2-phenyl-ethylcarbamoyl]-2-(4-ethoxy-phenyl)-ethylamino]-acetic acid]?
solubility in PO4 buffer [1]: > 235 µM; pIC50 [2]: 5.24; pIC50 [3]: < 5.00

Which solubility in PO4 buffer [1] does the source give for CCOc1ccc(C[C@@H](NC)C(=O)N[C@@H](Cc2ccccc2)C(=O)NCc2ccc(CN)cc2)cc1 [Example 27, (R)-N-[(S)-1-(4-Aminomethyl-benzylcarbamoyl)-2-phenyl-ethyl]-3-(4-ethoxy-phenyl)-2-methylamino-propionamide] here?
Its solubility in PO4 buffer is > 235 µM.

What about the pIC50 [2] of the same compound?
The pIC50 was 5.89.

And the pIC50 [3]?
The pIC50 was 5.40.

Which solubility in PO4 buffer [1] does the source give for CN[C@H](CC1CCCCC1)C(=O)N[C@@H](Cc1ccc(Cl)c(Cl)c1)C(=O)NCc1ccc(CN)c(F)c1 [Example 41, (R)-N-[(S)-1-(4-Aminomethyl-3-fluoro-benzylcarbamoyl)-2-(3,4-dichloro-phenyl)-ethyl]-3-cyclohexyl-2-methylamino-propionamide] here?
Its solubility in PO4 buffer is > 235 µM.

What about the pIC50 [2] of the same compound?
The pIC50 was 5.89.

And the pIC50 [3]?
The pIC50 was 5.60.

For CCOc1ccc(C[C@@H](NC(C)=O)C(=O)N(C)[C@@H](Cc2ccccc2)C(=O)NCc2ccc(CN)cc2)cc1 [Example 39, (R)-2-Acetylamino-N-[(S)-1-(4-aminomethyl-benzylcarbamoyl)-2-phenyl-ethyl]-3-(4-ethoxy-phenyl)-N-methyl-propionamide], which solubility in PO4 buffer [1] is on record?
The solubility in PO4 buffer was > 235 µM.

And the pIC50 [2]?
The pIC50 was 6.51.

What about the pIC50 [3] of the same compound?
Its pIC50 is < 5.00.

With CN(C(=O)[C@@H](CC1CCCCC1)NCC(=O)O)[C@@H](Cc1ccccc1)C(=O)NCc1ccc(CN)cc1 [Example 30, ((R)-1-{[(S)-1-(4-Aminomethyl-benzylcarbamoyl)-2-phenyl-ethyl]-methyl-carbamoyl}-2-cyclohexyl-ethylamino)-acetic acid] as the compound, how does the solubility in PO4 buffer [1] read?
Its solubility in PO4 buffer is > 235 µM.

And the pIC50 [2]?
The pIC50 was 6.24.

And the pIC50 [3]?
Its pIC50 is < 5.00.

Which solubility in PO4 buffer [1] does the source give for NCc1ccc(CNC(=O)[C@H](Cc2ccc(Cl)c(Cl)c2)NC(=O)[C@H](N)Cc2ccc(C(F)(F)F)cc2)cc1 [Example 18, (R)-2-Amino-N-[(S)-1-(4-aminomethyl-benzylcarbamoyl)-2-(3,4-dichloro-phenyl)-ethyl]-3-(4-trifluoromethyl-phenyl)-propionamide] here?
Its solubility in PO4 buffer is > 235 µM.

What about the pIC50 [2] of the same compound?
The pIC50 was 5.06.

And the pIC50 [3]?
The pIC50 was 5.80.

What does the source list for CN(C)[C@H](CC1CCCCC1)C(=O)N[C@@H](Cc1ccccc1)C(=O)NCc1ccc(CN)cc1 [Example 9, (R)-N-[(S)-1-(4-Aminomethyl-benzylcarbamoyl)-2-phenyl-ethyl]-3-cyclohexyl-2-dimethylamino-propionamide]?
solubility in PO4 buffer [1]: > 235 µM; pIC50 [2]: 5.70; pIC50 [3]: < 6.00

Which solubility in PO4 buffer [1] does the source give for CCOc1ccc(C[C@@H](NS(=O)(=O)c2ccccc2)C(=O)N[C@@H](Cc2ccccc2)C(=O)NCc2ccc(CN)cc2)cc1 [Example 15, (R)-N-[(S)-1-(4-Aminomethyl-benzylcarbamoyl)-2-phenyl-ethyl]-2-benzenesulfonylamino-3-(4-ethoxy-phenyl)-propionamide] here?
Its solubility in PO4 buffer is > 235 µM.

And the pIC50 [2]?
The pIC50 was 6.33.

What about the pIC50 [3] of the same compound?
Its pIC50 is 5.66.

For NCc1ccc(CNC(=O)[C@H](Cc2ccccc2)NC(=O)[C@H](N)C(C2CCCCC2)C2CCCCC2)cc1 [Example 52, (R)-2-Amino-N-[(S)-1-(4-aminomethyl-benzylcarbamoyl)-2-phenyl-ethyl]-3,3-dicyclohexyl-propionamide], which solubility in PO4 buffer [1] is on record?
Its solubility in PO4 buffer is > 235 µM.

What about the pIC50 [2] of the same compound?
Its pIC50 is 6.07.

And the pIC50 [3]?
Its pIC50 is 5.02.

With CCOc1ccc(C[C@@H](NC(=O)C(C)C)C(=O)N(C)[C@@H](Cc2ccccc2)C(=O)NCc2ccc(CN)cc2)cc1 [Example 44, N-[(R)-1-{[(S)-1-(4-Aminomethyl-benzylcarbamoyl)-2-phenyl-ethyl]-methyl-carbamoyl}-2-(4-ethoxy-phenyl)-ethyl]-isobutyramide] as the compound, how does the solubility in PO4 buffer [1] read?
Its solubility in PO4 buffer is > 235 µM.

What about the pIC50 [2] of the same compound?
The pIC50 was 6.74.

And the pIC50 [3]?
The pIC50 was < 5.00.

With CN(C(=O)[C@@H](CC1CCCCC1)NCC(=O)O)[C@@H](Cc1ccccc1)C(=O)NCc1ccc(CN)c(F)c1 [Example 34, ((R)-1-{[(S)-1-(4-Aminomethyl-3-fluoro-benzylcarbamoyl)-2-phenyl-ethyl]-methyl-carbamoyl}-2-cyclohexyl-ethylamino)-acetic acid] as the compound, how does the solubility in PO4 buffer [1] read?
Its solubility in PO4 buffer is > 235 µM.

What about the pIC50 [2] of the same compound?
The pIC50 was 5.85.

What about the pIC50 [3] of the same compound?
The pIC50 was 5.11.

Which solubility in PO4 buffer [1] does the source give for CS(=O)(=O)N[C@H](CC1CCCCC1)C(=O)N[C@@H](Cc1ccccc1)C(=O)NCc1ccc(CN)cc1 [Example 11, (R)-N-[(S)-1-(4-Aminomethyl-benzylcarbamoyl)-2-phenyl-ethyl]-3-cyclohexyl-2-methanesulfonylamino-propionamide] here?
Its solubility in PO4 buffer is > 235 µM.

And the pIC50 [2]?
Its pIC50 is 5.77.

With CCOc1ccc(C[C@@H](N)C(=O)N[C@@H](Cc2ccccc2)C(=O)NCc2ccc(CN)c(F)c2)cc1 [Example 6, (R)-2-Amino-N-[(S)-1-(4-aminomethyl-3-fluoro-benzylcarbamoyl)-2-phenyl-ethyl]-3-(4-ethoxy-phenyl)-propionamide] as the compound, how does the solubility in PO4 buffer [1] read?
The solubility in PO4 buffer was > 235 µM.

What about the pIC50 [2] of the same compound?
The pIC50 was 6.00.

What about the pIC50 [3] of the same compound?
Its pIC50 is < 6.00.

With CCOc1ccc(C[C@@H](NC(=O)CC)C(=O)N[C@@H](Cc2ccccc2)C(=O)N(C)Cc2ccc(CN)cc2)cc1 [Example 24, (S)-N-(4-Aminomethyl-benzyl)-2-[(R)-3-(4-ethoxy-phenyl)-2-propionylamino-propionylamino]-N-methyl-3-phenyl-propionamide] as the compound, how does the solubility in PO4 buffer [1] read?
The solubility in PO4 buffer was > 235 µM.

What about the pIC50 [2] of the same compound?
Its pIC50 is 6.35.

And the pIC50 [3]?
Its pIC50 is < 5.00.

With NCc1ccc(CNC(=O)[C@H](Cc2ccccc2)NC(=O)[C@@H](CC2CCCCC2)NCC(=O)O)cc1 [Example 4, {(R)-1-[(S)-1-(4-Aminomethyl-benzylcarbamoyl)-2-phenyl-ethylcarbamoyl]-2-cyclohexyl-ethylamino}-acetic acid] as the compound, how does the solubility in PO4 buffer [1] read?
The solubility in PO4 buffer was > 235 µM.

And the pIC50 [2]?
Its pIC50 is 6.64.

And the pIC50 [3]?
Its pIC50 is < 5.00.

For NCc1ccc(CNC(=O)[C@H](Cc2ccccc2)NC(=O)[C@@H](CC2CCCCC2)NCCO)cc1 [Example 51, (R)-N-[(S)-1-(4-Aminomethyl-benzylcarbamoyl)-2-phenyl-ethyl]-3-cyclohexyl-2-(2-hydroxy-ethylamino)-propionamide], which solubility in PO4 buffer [1] is on record?
Its solubility in PO4 buffer is > 235 µM.

And the pIC50 [2]?
The pIC50 was 6.00.

And the pIC50 [3]?
The pIC50 was < 5.00.

With CCOc1ccc(C[C@@H](NC(=O)CC)C(=O)N(C)[C@@H](Cc2ccccc2)C(=O)NCc2ccc(CN)c(F)c2)cc1 [Example 32, (S)-N-(4-Aminomethyl-3-fluoro-benzyl)-2-{[(R)-3-(4-ethoxy-phenyl)-2-propionylamino-propionyl]-methyl-amino}-3-phenyl-propionamide] as the compound, how does the solubility in PO4 buffer [1] read?
Its solubility in PO4 buffer is > 235 µM.

And the pIC50 [2]?
The pIC50 was 6.70.

And the pIC50 [3]?
Its pIC50 is < 5.00.

For CCOc1ccc(C[C@H](C(=O)N[C@@H](Cc2ccccc2)C(=O)NCc2ccc(CN)cc2)N(C)C(=O)CC)cc1 [Example 31, (S)-N-(4-Aminomethyl-benzyl)-2-[(R)-3-(4-ethoxy-phenyl)-2-(methyl-propionyl-amino)-propionylamino]-3-phenyl-propionamide], which solubility in PO4 buffer [1] is on record?
The solubility in PO4 buffer was > 235 µM.

And the pIC50 [2]?
Its pIC50 is 5.37.

What about the pIC50 [3] of the same compound?
Its pIC50 is 5.02.

With CCC(=O)N[C@H](CC1CCCCC1)C(=O)N[C@@H](Cc1ccccc1)C(=O)NCc1ccc(CN)cc1 [Example 10, (S)-N-(4-Aminomethyl-benzyl)-2-((R)-3-cyclohexyl-2-propionylamino-propionylamino)-3-phenyl-propionamide] as the compound, how does the solubility in PO4 buffer [1] read?
Its solubility in PO4 buffer is > 235 µM.

And the pIC50 [2]?
The pIC50 was 5.14.

What does the source list for CN(CC(=O)O)[C@H](CC1CCCCC1)C(=O)N[C@@H](Cc1ccc(Cl)c(Cl)c1)C(=O)NCc1ccc(CN)c(F)c1 [Example 43, ({(R)-1-[(S)-1-(4-Aminomethyl-3-fluoro-benzylcarbamoyl)-2-(3,4-dichloro-phenyl)-ethylcarbamoyl]-2-cyclohexyl-ethyl}-methyl-amino)-acetic acid]?
solubility in PO4 buffer [1]: > 235 µM; pIC50 [2]: 5.89; pIC50 [3]: < 5.00
